From patent publication US11667606B2, “Thyromimetics” (Autobahn Therapeutics, Inc., priority 2019, dated 2023)

Columns and labels:
[1] = target: T1, TRα (Homo sapiens, UniProt P10827); experiment: Thyroid-hormone reporter-gene assay, TRα (Gal4 DBD hybrid, luciferase, HEK293); format: cell-based; conditions: reporter cells derived from HEK293, 24 hr incubation, luciferase readout
T1 construct: expressed in transfected cells; host or cells: HEK293
T1 sequence (P10827 128-410 isoform P10827-2 limits assumed): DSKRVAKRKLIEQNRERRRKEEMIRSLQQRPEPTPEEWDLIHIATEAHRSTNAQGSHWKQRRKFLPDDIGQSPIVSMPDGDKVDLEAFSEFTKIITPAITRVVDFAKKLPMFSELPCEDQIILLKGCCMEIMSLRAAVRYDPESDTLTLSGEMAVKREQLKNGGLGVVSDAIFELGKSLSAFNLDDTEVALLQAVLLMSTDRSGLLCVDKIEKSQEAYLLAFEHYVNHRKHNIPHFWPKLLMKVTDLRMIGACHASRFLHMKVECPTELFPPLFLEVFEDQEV
Protocol: (§1) Compounds were tested for thyroid-hormone receptor activity using TR reporter-gene assays. Reporter cells used in the assays express a TR-receptor hybrid (either TRα or TRβ) in which the native N-terminal DNA binding domain (DBD) has been replaced with that of the yeast Gal4 DBD. The reporter gene, firefly luciferase, is functionally linked to the Gal4 upstream activation sequence (UAS). Both cell lines were derived from human embryonic kidney (HEK293).
(§2) A suspension of reporter cells was prepared in cell recovery medium containing 10% charcoal-stripped FBS, and dispensed into assay plates. The plates were pre-incubated for 6 hours in a cell culture incubator (37° C./5% CO2/85% humidity).
(§3) These intermediate stocks were subsequently diluted directly into compound screening medium containing 10% charcoal-stripped FBS to generate “2×-concentration” treatment media (containing 0.2, 0.4 or 0.8% DMSO).
(§4) At the end of the pre-incubation period, culture media were discarded from the assay plates, and all wells received 100 μl of compound screening medium. 100 μl of each of the previously prepared “2×-concentration” treatment media were dispensed into duplicate assay wells, thereby achieving the desired final treatment concentrations. The final concentration of DMSO in all assay wells was 0.1, 0.2 or 0.4%. Assay plates were incubated for 24 hr in a cell culture incubator (37° C./5% CO2/85% humidity).
(§5) At the 24 h assay endpoint, treatment media were discarded and […] of luciferase detection reagent was added. Relative luminometer units (RLUs) were quantified from each assay well.

[2] = target: T2, TRβ (Homo sapiens, UniProt P10828); experiment: Thyroid-hormone reporter-gene assay, TRβ (Gal4 DBD hybrid, luciferase, HEK293); format: cell-based; conditions: for EC50: reporter cells derived from HEK293, 24 hr incubation, luciferase readout; for T3-SI, selectivity index (SI) calculated as EC50 (TRα)/EC50 (TRβ): TRβ over TRα selectivity from reporter-gene EC50 values
T2 construct: expressed in transfected cells; host or cells: HEK293
T2 sequence (P10828 217-461 limits assumed): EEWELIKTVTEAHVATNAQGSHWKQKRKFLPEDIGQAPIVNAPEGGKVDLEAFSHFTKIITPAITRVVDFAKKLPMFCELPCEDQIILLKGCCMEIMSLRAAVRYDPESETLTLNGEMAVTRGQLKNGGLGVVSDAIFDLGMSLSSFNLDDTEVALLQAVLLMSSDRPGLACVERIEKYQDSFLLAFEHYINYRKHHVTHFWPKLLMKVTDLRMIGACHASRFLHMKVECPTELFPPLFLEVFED
Protocol: as §1, §2, §3, §4, §5

| EC50 [1] | EC50 [2] | T3-SI, selectivity index (SI) calculated as EC50 (TRα)/EC50 (TRβ) [2] | SMILES |
| --- | --- | --- | --- |
| > 1000 nM | > 1000 nM | – | C=C(C)c1cccc(-c2cc(Cc3c(Cl)cc(OCC(=O)O)cc3Cl)ccc2O)c1 [Compound 22, 2-(3,5-dichloro-4-((6-hydroxy-3′-(prop-1-en-2-yl)-[1,1′-biphenyl]-3-yl)methyl)phenoxy)acetic Acid] |
| > 1000 nM | 100 to 1000 nM | +++ (T3-SI > 30X) | O=C(O)COc1cc(Cl)c(Cc2ccc(O)c(-c3cccc(CC(F)(F)F)c3)c2)c(Cl)c1 [Compound 26, 2-(3,5-dichloro-4-((6-hydroxy-3′-(2,2,2-trifluoroethyl)-[1,1′-biphenyl]-3-yl)methyl)phenoxy)acetic Acid] |
| 100 to 1000 nM | 10 to 100 nM | ++ (3X < T3-SI ≤ 30X) | O=C(O)COc1cc(Cl)c(Cc2ccc(O)c(-c3cccc(Cl)c3)c2)c(Cl)c1 [Compound 29, 2-(3,5-dichloro-4-((3′-chloro-6-hydroxy-[1,1′-biphenyl]-3-yl)methyl)phenoxy)acetic Acid] |
| > 1000 nM | 100 to 1000 nM | ++ (3X < T3-SI ≤ 30X) | O=C(O)COc1cc(Cl)c(Cc2ccc(O)c(-c3cccs3)c2)c(Cl)c1 [Compound 34, 2-(3,5-dichloro-4-(4-hydroxy-3-(thiophen-2-yl)benzyl)phenoxy)acetic acid] |
| > 1000 nM | > 1000 nM | ++ (3X < T3-SI ≤ 30X) | O=C(O)COc1cc(Cl)c(Cc2ccc(O)c(-c3cc(Cl)cs3)c2)c(Cl)c1 [Compound 36, 2-(3,5-dichloro-4-(3-(4-chlorothiophen-2-yl)-4-hydroxybenzyl)phenoxy) acetic Acid] |
| > 1000 nM | > 1000 nM | ++ (3X < T3-SI ≤ 30X) | O=C(O)COc1cc(Cl)c(Cc2ccc(O)c(-c3ccco3)c2)c(Cl)c1 [Compound 38, 2-(3,5-dichloro-4-(3-(furan-2-yl)-4-hydroxybenzyl)phenoxy)acetic acid] |
| > 1000 nM | > 1000 nM | ++ (3X < T3-SI ≤ 30X) | O=C(O)COc1cc(Cl)c(Cc2ccc(O)c(-c3ccoc3)c2)c(Cl)c1 [Compound 40, 2-(3,5-dichloro-4-(3-(furan-3-yl)-4-hydroxybenzyl)phenoxy)acetic acid] |
| > 1000 nM | 100 to 1000 nM | ++ (3X < T3-SI ≤ 30X) | O=C(O)COc1cc(Cl)c(Cc2ccc(O)c(-c3ccsc3)c2)c(Cl)c1 [Compound 42, 2-(3,5-dichloro-4-(4-hydroxy-3-(thiophen-3-yl)benzyl)phenoxy)acetic acid] |
| > 1000 nM | 100 to 1000 nM | ++ (3X < T3-SI ≤ 30X) | O=C(O)COc1cc(Cl)c(Cc2ccc(O)c(-c3csc(Cl)c3)c2)c(Cl)c1 [Compound 43, 2-(3,5-dichloro-4-(3-(5-chlorothiophen-3-yl)-4-hydroxybenzyl)phenoxy) acetic Acid] |
| 100 to 1000 nM | 10 to 100 nM | ++ (3X < T3-SI ≤ 30X) | O=C(O)COc1cc(Cl)c(Cc2ccc(O)c(-c3cc(C(F)(F)F)ccc3F)c2)c(Cl)c1 [Compound 45, 2-(3,5-dichloro-4-((2′-fluoro-6-hydroxy-5′-(trifluoromethyl)-[1,1′-biphenyl]-3-yl)methyl)phenoxy)acetic Acid] |
| > 1000 nM | 100 to 1000 nM | ++ (3X < T3-SI ≤ 30X) | O=C(O)COc1cc(Cl)c(Cc2ccc(O)c(-c3cccc(C(F)(F)F)c3F)c2)c(Cl)c1 [Compound 49, 2-(3,5-dichloro-4-((2′-fluoro-6-hydroxy-3′-(trifluoromethyl)-[1,1′-biphenyl]-3-yl)methyl)phenoxy)acetic Acid] |
| > 1000 nM | > 1000 nM | ++ (3X < T3-SI ≤ 30X) | CCc1ccc(F)c(-c2cc(Cc3c(Cl)cc(OCC(=O)O)cc3Cl)ccc2O)c1 [Compound 51, 2-(3,5-dichloro-4-((5′-ethyl-2′-fluoro-6-hydroxy-[1,1′-biphenyl]-3-yl)methyl)phenoxy)acetic Acid] |
| 100 to 1000 nM | 10 to 100 nM | ++ (3X < T3-SI ≤ 30X) | O=C(O)COc1cc(Cl)c(Cc2ccc(O)c(-c3cc(OC(F)F)ccc3F)c2)c(Cl)c1 [Compound 52, 2-(3,5-dichloro-4-((5′-(difluoromethoxy)-2′-fluoro-6-hydroxy-[1,1′-biphenyl]-3-yl)methyl)phenoxy)acetic Acid] |
| > 1000 nM | 100 to 1000 nM | ++ (3X < T3-SI ≤ 30X) | O=C(O)COc1cc(Cl)c(Cc2ccc(O)c(-c3cc(F)cc(OC(F)F)c3)c2)c(Cl)c1 [Compound 54, 2-(3,5-dichloro-4-((3′-(difluoromethoxy)-5′-fluoro-6-hydroxy-[1,1′-biphenyl]-3-yl)methyl)phenoxy)acetic Acid] |
| > 1000 nM | 100 to 1000 nM | ++ (3X < T3-SI ≤ 30X) | O=C(O)COc1cc(Cl)c(Cc2ccc(O)c(-c3cccc(OC(F)F)c3F)c2)c(Cl)c1 [Compound 56, 2-(3,5-dichloro-4-((3′-(difluoromethoxy)-2′-fluoro-6-hydroxy-[1,1′-biphenyl]-3-yl)methyl)phenoxy)acetic Acid] |
| > 1000 nM | 100 to 1000 nM | +++ (T3-SI > 30X) | CCc1cccc(-c2cc(Cc3c(C)cc(OCC(=O)O)cc3Cl)ccc2O)c1 [Compound 60, 2-(3-chloro-4-((3′-ethyl-6-hydroxy-[1,1′-biphenyl]-3-yl)methyl)-5-methylphenoxy)acetic Acid] |
| > 1000 nM | 100 to 1000 nM | ++ (3X < T3-SI ≤ 30X) | Cc1cc(OCC(=O)O)cc(Cl)c1Cc1ccc(O)c(-c2cccc(OC(F)F)c2)c1 [Compound 62, 2-(3-chloro-4-((3′-(difluoromethoxy)-6-hydroxy-[1,1′-biphenyl]-3-yl)methyl)-5-methylphenoxy)acetic Acid] |
| 100 to 1000 nM | 100 to 1000 nM | ++ (3X < T3-SI ≤ 30X) | Cc1cc(OCC(=O)O)cc(Cl)c1Cc1ccc(O)c(-c2cccc(C(F)(F)F)c2)c1 [Compound 64, 2-(3-chloro-4-((6-hydroxy-3′-(trifluoromethyl)-[1,1′-biphenyl]-3-yl)methyl)-5-methylphenoxy)acetic Acid] |
| 100 to 1000 nM | 10 to 100 nM | ++ (3X < T3-SI ≤ 30X) | Cc1cc(OCC(=O)O)cc(Br)c1Cc1ccc(O)c(-c2cccc(OC(F)F)c2)c1 [Compound 66, 2-(3-bromo-4-((3′-(difluoromethoxy)-6-hydroxy-[1,1′-biphenyl]-3-yl)methyl)-5-methylphenoxy)acetic Acid] |
| > 1000 nM | 100 to 1000 nM | +++ (T3-SI > 30X) | O=C(O)COc1cc(Cl)c(Cc2ccc(O)c(Cc3ccc(F)cc3)c2)c(Cl)c1 [Compound 70, 2-(3,5-dichloro-4-(3-(4-fluorobenzyl)-4-hydroxybenzyl)phenoxy)acetic Acid] |
| 10 to 100 nM | 10 to 100 nM | ++ (3X < T3-SI ≤ 30X) | CC(c1ccc(F)cc1)c1cc(Cc2c(Cl)cc(OCC(=O)O)cc2Cl)ccc1O (centres unmarked) [Compound 73, 2-(3,5-dichloro-4-(3-(1-(4-fluorophenyl)ethyl)-4-hydroxybenzyl)phenoxy) acetic Acid] |
| > 1000 nM | > 1000 nM | ++ (3X < T3-SI ≤ 30X) | O=C(O)COc1cc(Cl)c(Cc2ccc(O)c(Cc3ccncc3)c2)c(Cl)c1 [Compound 82, 2-(3,5-dichloro-4-(4-hydroxy-3-(pyridin-4-ylmethyl)benzyl)phenoxy) acetic Acid] |
| > 1000 nM | > 1000 nM | ++ (3X < T3-SI ≤ 30X) | O=C(O)COc1cc(Cl)c(Cc2ccc(O)c(Cc3ccccc3F)c2)c(Cl)c1 [Compound 84, 2-(3,5-dichloro-4-(3-(2-fluorobenzyl)-4-hydroxybenzyl)phenoxy)acetic Acid] |
